Data published in patent US10611751B2, “Dopamine D1 receptor positive allosteric modulators” (Eli Lilly and Company, priority 2018, dated 2020).
“Also recorded” adds a separate entry of the source. Like-named read-outs stand apart in the source and are kept apart here. Marks after values point to notes of the source that are not given here.

Key:
human D1 receptor = human D1 receptor (Homo sapiens (Human), UniProt P21728); assay: Human D1 Receptor PAM Assay (cAMP HTRF, potentiator mode with EC20 dopamine); format: cell-based; details: for EC50: HEK293 cells expressing human D1 receptor, 12 nM dopamine (EC20), cAMP, read-out: Abs EC50; for Emax: fitted top of curve, 0% = EC20 dopamine, 100% = 5 μM dopamine, read-out: % Top (% Potentiation)
From the text: The PAM activity of the compounds of the present invention may be measured essentially as described in Svensson et al., An Allosteric Potentiator of the Dopamine D1 Receptor Increases Locomotor Activity in Human D1 Knock-in Mices without Casusing Stereotypy or Tachyphylaxis. J. Pharmacol. Exp. Ther. (2017) 360:117-128.
More specifically, HEK293 cells that stably express the human D1 receptor (Accession number NM_000794) are generated by gene transduction using the pBABE-bleo retroviral vector and selected with Zeocin™ (InvivoGen). At approximately 80% confluency, the cells are harvested using TrypLE™ Express (Gibco), suspended in FBS plus 8% DMSO, and stored in liquid nitrogen. On the day of the assay, cells are thawed and resuspended in STIM buffer (Hanks Balanced Salt Solution supplemented with 0.1% BSA, 20 mM HEPES, 500 μM IBMX, and 100 μM ascorbic acid).
Test compound is serially diluted (1:2) with DMSO into assay plates (ProxiPlate-384 Plus, PerkinElmer) using acoustic dispensing (Labcyte) to provide 20 concentrations for full response curves. […] Plates are incubated at room temperature for a total reaction time of 60 min.
cAMP production is quantified using HTRF® detection (Cisbio) according to the manufacturer's instructions. Generally, lysis buffer containing anti-cAMP cryptate (5 μL) and D2-conjugate (from HTRF® kit) (5 μL) is added to the wells, plates are incubated for an additional 60-90 min, and the time-resolved fluorescence is detected using an EnVision™ plate reader (PerkinElmer). Fluorescence data is converted to cAMP concentrations using a cAMP standard curve and analyzing using a 4-parameter non-linear logistic equation (Genedata Screener, version 13.0.5-standard). For potentiator mode concentration-response curves, results are expressed as percent of the window between a response at EC20 concentration of dopamine alone (normalized to 0%) and the maximum response to dopamine (defined by response to 5 μM dopamine, final concentration, normalized as 100%).
Absolute EC50 values are calculated based on the maximum and minimum responses of the control agonist (dopamine). The % Potentiation (% Top) is determined from the fitted top of the concentration response curve.

[1] = Fraction unbound in plasma and brain, determined in vitro (equilibrium dialysis); format: in vitro ADME
Method: Example 1 is orally dosed to male mouse from 1 mg/kg to 30 mg/kg in fed condition, and the plasma and brain concentration are determined 1.5 hr post-dose. The fraction unbound of the compound is determined in vitro as described previously (Zamek-Gliszczynski M J, Ruterbories K J, Ajamie R T, Wickremsinhe E R, Pothuri L, Rao M V, Basavanakatti V N, Pinjari J, Ramanathan V K, Chaudhary A K (2011) Validation of 96-well equilibrium dialysis with non-radiolabeled drug for definitive measurement of protein binding and application to clinical development of highly-bound drugs. J Pharm Sci 100: 2498-2507). The ratio (Kpuu) of unbound brain concentration (Cu,brain) vs. unbound plasma concertation (Cu,plasma) is determined as described previously (Raub T J, Wishart G N, Kulanthaivel P, Staton B A, Ajamie R T, Sawada G A, Gelbert L M, Shannon H E, Sanchez-Martinez C, De Dios A (2015) Brain Exposure of Two Selective Dual CDK4 and CDK6 Inhibitors and the Antitumor Activity of CDK4 and CDK6 Inhibition in Combination with Temozolomide in an Intracranial Glioblastoma Xenograft. Drug Metab Dispos. 43:1360-71). The data presented below for Example 1 are averages from 3 animals at each dose. “Con.” refers to concentration.
Example 8 was orally dosed to male mouse from 3 mg/kg to 60 mg/kg in fed condition, and the plasma and brain concentration was determined 1 hr post-dose. The fraction unbound of the compound was determined in vitro as described previously (Zamek-Gliszczynski M J, et al., Validation of 96-well equilibrium dialysis with non-radiolabeled drug for definitive measurement of protein binding and application to clinical development of highly-bound drugs, J. Pharm. Sci. (2011) 100: 2498-2507). The ratio (Kpuu) of unbound brain concentration (Cu,brain) vs. unbound plasma concertation (Cu,plasma) was determined as described previously (Raub T J, et al., Brain Exposure of Two Selective Dual CDK4 and CDK6 Inhibitors and the Antitumor Activity of CDK4 and CDK6 Inhibition in Combination with Temozolomide in an Intracranial Glioblastoma Xenograft. Drug Metab. Dispos. (2015) 43:1360-71). The data presented below for Example 8 are averages from 3 animals at each dose.

[2] = test system: human D1 receptor knock-in mice; assay: Basal (Habituated) Locomotor Activity; format: in vivo, mouse; details: for Basal Locomotor Activity (Total Ambulations for 60 min), mean: male human D1 knock-in mice, N = 8/group; for Effect on basal movement / locomotor activation (in words): oral dose response, habituated human D1 knock-in mice
Method: Locomotor activity is measured using an automated system to track movement in mice. Monitoring of mouse locomotor activity behaviors take place in transparent plastic shoebox cages having dimensions of 45×25×20 cm, with a 1 cm depth of wood chips for absorbent bedding, and covered with a ventilated filtered plastic cage top. Cages were placed in a rectangular frame containing a grid of 12 photocell beams in an 8×4 configuration (Kinder Scientific, Poway, Calif.) that is positioned 2.5 centimeters from the floor of the cage for the detection of body movements (ambulations) and recorded by computer.
Male human D1 receptor knock-in mice are placed in chambers and allowed to habituate to the chambers for 60 min. During the habituation period, the mice show decreasing locomotion over time, as expected. Following administration of a compound of the invention, animal movement is found to increase in a dose-dependent fashion.
The mice are randomly assigned to treatment groups. In the dose response study, each mouse is placed individually into one of the locomotor activity boxes for a 60 min. habituation period. The mice are then dosed orally using test compound in a 20% hydroxypropyl-betacyclodextrin vehicle and using a 10 mL/kg dose volume. After dosing, the mice are placed back into the LMA boxes and the total number of ambulations is recorded per 10 min interval for each mouse over a 60 min measurement period. Statistical analysis is carried out using one-way ANOVA followed by post-hoc analysis using Dunnett's Comparison test.

[3] = fraction unbound in brain, read-out: fu, brain
[4] = fraction unbound in plasma, read-out: fu, plasma

Chain of human D1 receptor (P21728 whole entry): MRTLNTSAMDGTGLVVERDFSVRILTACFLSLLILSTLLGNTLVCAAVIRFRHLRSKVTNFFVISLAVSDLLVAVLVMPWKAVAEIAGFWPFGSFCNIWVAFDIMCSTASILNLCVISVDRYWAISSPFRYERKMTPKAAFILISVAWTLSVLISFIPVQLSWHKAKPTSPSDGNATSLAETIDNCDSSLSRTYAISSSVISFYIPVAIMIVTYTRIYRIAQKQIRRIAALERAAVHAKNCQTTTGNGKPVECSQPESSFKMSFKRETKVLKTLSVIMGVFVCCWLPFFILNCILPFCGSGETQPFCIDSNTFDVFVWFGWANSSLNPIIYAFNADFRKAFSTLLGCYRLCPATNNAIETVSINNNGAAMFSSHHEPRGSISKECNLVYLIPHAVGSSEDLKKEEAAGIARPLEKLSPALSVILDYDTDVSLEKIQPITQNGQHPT

Row | Compound | EC50 (human D1 receptor) [nM] | Emax (human D1 receptor) [%] | fraction unbound [1, 3] | fraction unbound [1, 4] | Basal Locomotor Activity (Total Ambulations for 60 min), mean ([2]; 1.0 mg/kg PO) | Basal Locomotor Activity (Total Ambulations for 60 min), mean ([2]; 3.0 mg/kg PO) | Basal Locomotor Activity (Total Ambulations for 60 min), mean ([2]; 6.0 mg/kg PO) | Basal Locomotor Activity (Total Ambulations for 60 min), mean ([2]; 10 mg/kg PO) | Basal Locomotor Activity (Total Ambulations for 60 min), mean ([2]; 30 mg/kg PO) | Effect on basal movement / locomotor activation (in words) [2] | Basal Locomotor Activity (Total Ambulations for 60 min), mean ([2]; 20 mg/kg PO) | Basal Locomotor Activity (Total Ambulations for 60 min), mean ([2]; 60 mg/kg PO)
1 | C[C@H]1c2cccc(-c3cnn(C)c3)c2C[C@H](CO)N1C(=O)Cc1c(Cl)cccc1Cl [Example 1, 2-(2,6-dichlorophenyl)-1-((1S,3R)-3-(hydroxymethyl)-1-methyl-5-(1-methyl-1H-pyrazol-4-yl)-3,4-dihydroisoquinolin-2(1H)-yl)ethan-1-one] | 16.4 ± 3.18 | 91.4 | 0.025 | 0.027 | 410 | 490 | 1517* | 2426*** | 3568**** | increase basal movement in a dose dependent manner; also recorded: significant in vivo efficacy when orally administered at 6, 10, and 30 mg/kg PO | – | –
2 | C[C@H]1c2cccc(-c3cn[nH]c3)c2C[C@H](CO)N1C(=O)Cc1c(Cl)cccc1Cl [Example 8, 2-(2,6-dichlorophenyl)-1-((1S,3R)-3-(hydroxymethyl)-1-methyl-5-(1H-pyrazol-4-yl)-3,4-dihydroisoquinolin-2(1H)-yl)ethan-1-one] | 13.4 | 75.9 | 0.01 | 0.031 | – | 335 | – | 753 | 3746** | increase basal movement in a dose dependent manner | 3629* | 4080 ***
